Experimental data taken from paper PMC3365510 (Bioorganic & medicinal chemistry letters, 2012).
pIC50: −log10 of the molar value. Values joined by “and” are separate entries in the source; they are usually repeats but may differ in a detail not shown here. Identical values can stand only once. “Also recorded” adds a separate entry of the source. Like-named read-outs stand apart in the source and are kept apart here.

What was measured:
mGlu3 [1] = biological target: T1, mGlu3 (Homo sapiens, UniProt Q14832); test: mGlu3 GIRK assay; assay type: cell-based
mGlu2 = mGlu2 (Homo sapiens, UniProt Q14416); test: mGlu2 GIRK assay; assay type: cell-based; settings: mGlu3 NAM potency versus mGlu2 GIRK
mGlu3 [2] = biological target: T1, mGlu3; test: mGlu3 calcium assay, mGlu3 co-expressed with promiscuous G protein Gα15; assay type: cell-based
IP plasma:brain level = assay type: in vivo, rat; settings: 10 mg/kg IP
mGlu5 = mGlu5 (Homo sapiens, UniProt P41594); test: mGlu5 calcium assay; assay type: cell-based
[3] = system: 68 GPCRs, ion channels and transporters; test: Lead Profiling Screen at Ricerca, radioligand binding assays; settings: screened at 10 μM, 68 targets
[4] = Intrinsic clearance in rat liver microsomes; assay type: in vitro ADME
[5] = Intrinsic clearance in human liver microsomes; assay type: in vitro ADME
[6] = Metabolite ID in rat liver microsomes; assay type: in vitro ADME
mGlu3 [7] = biological target: T1, mGlu3; test: Schild analysis, glutamate concentration-response in mGlu3 GIRK; assay type: cell-based; settings: rightward shift and decreased maximal efficacy of glutamate
[8] = Metabolite ID in human liver microsomes; assay type: in vitro ADME
six other mGlu subtypes = test: Activity at the six other mGlu subtypes; assay type: cell-based
[9] = 10% Tween80 in 0.5% methylcellulose

Sequence of mGlu5 (P41594 21-1212): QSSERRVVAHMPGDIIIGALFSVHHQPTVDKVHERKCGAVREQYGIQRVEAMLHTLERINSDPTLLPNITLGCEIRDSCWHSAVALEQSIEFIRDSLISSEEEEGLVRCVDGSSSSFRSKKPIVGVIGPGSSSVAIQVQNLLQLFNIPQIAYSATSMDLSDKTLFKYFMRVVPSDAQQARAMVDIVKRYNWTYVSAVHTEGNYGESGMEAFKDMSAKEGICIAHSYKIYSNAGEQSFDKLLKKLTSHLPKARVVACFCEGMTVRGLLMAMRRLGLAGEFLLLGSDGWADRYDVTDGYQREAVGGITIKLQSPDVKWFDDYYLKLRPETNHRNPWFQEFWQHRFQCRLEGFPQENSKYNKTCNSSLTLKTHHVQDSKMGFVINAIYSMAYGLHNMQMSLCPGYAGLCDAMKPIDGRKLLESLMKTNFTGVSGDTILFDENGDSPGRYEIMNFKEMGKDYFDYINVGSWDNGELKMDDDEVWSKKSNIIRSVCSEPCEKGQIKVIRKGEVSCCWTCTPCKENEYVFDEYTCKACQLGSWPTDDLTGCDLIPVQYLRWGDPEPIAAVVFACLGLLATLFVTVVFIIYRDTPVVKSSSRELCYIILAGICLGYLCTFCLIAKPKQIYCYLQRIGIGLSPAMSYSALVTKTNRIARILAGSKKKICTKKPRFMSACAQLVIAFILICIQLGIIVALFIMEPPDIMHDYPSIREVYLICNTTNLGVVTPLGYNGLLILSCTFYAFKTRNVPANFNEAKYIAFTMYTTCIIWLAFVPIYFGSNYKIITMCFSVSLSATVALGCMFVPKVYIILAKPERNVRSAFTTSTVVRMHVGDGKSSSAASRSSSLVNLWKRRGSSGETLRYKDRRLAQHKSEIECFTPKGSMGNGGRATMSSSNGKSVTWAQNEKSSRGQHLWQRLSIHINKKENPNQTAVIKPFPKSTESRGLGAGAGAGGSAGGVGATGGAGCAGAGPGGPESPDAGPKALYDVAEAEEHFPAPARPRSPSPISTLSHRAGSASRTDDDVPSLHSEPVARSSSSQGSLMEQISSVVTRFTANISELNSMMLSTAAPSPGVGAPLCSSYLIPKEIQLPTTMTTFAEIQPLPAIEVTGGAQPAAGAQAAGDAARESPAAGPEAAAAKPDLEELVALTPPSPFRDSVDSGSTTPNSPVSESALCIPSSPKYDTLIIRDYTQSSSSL
T1 sequence (Q14832 23-879): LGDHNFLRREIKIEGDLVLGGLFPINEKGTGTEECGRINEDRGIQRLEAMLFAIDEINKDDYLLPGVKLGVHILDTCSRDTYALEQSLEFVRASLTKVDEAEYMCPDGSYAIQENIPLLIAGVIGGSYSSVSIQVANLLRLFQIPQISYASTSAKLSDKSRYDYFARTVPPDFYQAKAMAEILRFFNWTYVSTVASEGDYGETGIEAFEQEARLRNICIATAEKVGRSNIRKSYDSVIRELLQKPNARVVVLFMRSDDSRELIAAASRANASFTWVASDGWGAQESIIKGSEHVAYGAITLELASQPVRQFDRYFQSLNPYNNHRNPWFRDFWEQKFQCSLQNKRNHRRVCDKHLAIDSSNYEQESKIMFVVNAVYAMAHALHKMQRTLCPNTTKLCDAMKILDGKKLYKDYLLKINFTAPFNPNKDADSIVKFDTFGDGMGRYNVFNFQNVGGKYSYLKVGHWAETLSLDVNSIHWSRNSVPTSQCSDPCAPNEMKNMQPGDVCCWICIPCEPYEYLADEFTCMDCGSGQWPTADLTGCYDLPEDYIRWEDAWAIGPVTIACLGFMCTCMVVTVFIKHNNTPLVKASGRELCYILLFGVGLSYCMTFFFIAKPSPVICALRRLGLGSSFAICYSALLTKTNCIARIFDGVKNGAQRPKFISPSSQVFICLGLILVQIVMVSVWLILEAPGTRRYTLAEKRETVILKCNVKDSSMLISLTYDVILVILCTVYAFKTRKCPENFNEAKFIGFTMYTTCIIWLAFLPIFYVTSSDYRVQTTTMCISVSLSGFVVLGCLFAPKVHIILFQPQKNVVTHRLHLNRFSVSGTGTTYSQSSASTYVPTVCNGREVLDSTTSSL
Sequence of mGlu2 (Q14416 19-872): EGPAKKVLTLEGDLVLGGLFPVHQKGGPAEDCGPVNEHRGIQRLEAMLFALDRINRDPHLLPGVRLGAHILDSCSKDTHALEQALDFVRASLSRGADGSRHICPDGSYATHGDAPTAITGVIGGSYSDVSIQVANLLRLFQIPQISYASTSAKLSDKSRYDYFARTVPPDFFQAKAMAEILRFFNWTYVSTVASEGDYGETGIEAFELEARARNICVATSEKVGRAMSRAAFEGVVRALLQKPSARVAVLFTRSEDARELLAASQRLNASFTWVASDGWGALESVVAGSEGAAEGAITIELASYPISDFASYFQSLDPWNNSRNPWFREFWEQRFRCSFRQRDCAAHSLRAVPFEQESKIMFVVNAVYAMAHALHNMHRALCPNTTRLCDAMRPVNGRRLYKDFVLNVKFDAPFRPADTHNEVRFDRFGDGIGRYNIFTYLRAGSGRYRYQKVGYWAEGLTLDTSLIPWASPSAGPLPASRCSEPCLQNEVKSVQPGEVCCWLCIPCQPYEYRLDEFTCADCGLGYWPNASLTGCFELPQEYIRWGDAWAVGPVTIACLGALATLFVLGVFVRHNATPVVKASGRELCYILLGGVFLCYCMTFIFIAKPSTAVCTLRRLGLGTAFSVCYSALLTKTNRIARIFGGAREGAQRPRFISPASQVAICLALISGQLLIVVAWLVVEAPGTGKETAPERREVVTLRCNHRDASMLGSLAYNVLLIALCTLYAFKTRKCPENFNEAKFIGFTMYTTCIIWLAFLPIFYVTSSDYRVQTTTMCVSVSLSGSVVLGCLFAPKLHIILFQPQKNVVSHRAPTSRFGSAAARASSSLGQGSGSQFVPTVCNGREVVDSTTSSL

In the case of `COc1ccc(C#Cc2ccc(C(=O)N3CCCC(CO)C3)cc2)cc1` (stereo not drawn) [Compound 10e], the “block of the glutamate EC80 (in words)” value (mGlu3 [1]; mGlu3 GIRK assay) was “full block”.

For `COc1ccc(C#Cc2ccc(C(=O)N3CCC[C@H](CO)C3)cc2)cc1` [Compound 12], the “block of the glutamate EC80 (in words)” value (mGlu3 [1]; mGlu3 GIRK assay) was “full blockade”.

With `COc1ccc(C#Cc2ccc(C(=O)N3CCC[C@@H](CO)C3)cc2)cc1` [Compound 11] the “selectivity versus mGlu2” value (mGlu2) was greater than 15 fold, the “% Glu Min” value (mGlu3 [2]) was 2.1±0.3% and the brain level (IP plasma:brain level; [9]) was 16.3 µM. The plasma level (IP plasma:brain level; [9]) was 9.7 µM, the “free concentration in rat brain” value (IP plasma:brain level; based on brain homogenate binding) was ~ 163 nM and the “block of the glutamate EC80 (in words)” value (mGlu3 [1]; mGlu3 GIRK assay) was “full blockade”. The “potency ratio of 11 over 12” value (mGlu3 [1]; mGlu3 GIRK assay) was 2 fold, the “activity/selectivity against mGlu5 (in words)” value (mGlu5) was “complete specificity versus mGlu5” and the “activity/selectivity against mGlu5 (in words)” value (mGlu5; listed as ML289) was “inactive; also recorded: highly selective versus mGlu5”. For the same compound, the “potentiation of an EC20 concentration of glutamate at mGlu5” value (mGlu5; mGlu5 calcium assay, PAM mode) was “inactive”, the “inhibition of an EC80 concentration of glutamate at mGlu5” value (mGlu5; mGlu5 calcium assay, antagonist mode) was “inactive” and the inhibition of off-targets [3] was no more than 25%. For the same compound, the CLint scaled [4] was 240 mL/min/kg, the CLint scaled [5] was 572 mL/min/kg and the principle biotransformation pathway [6] was “P450-mediated O-demethylation”. For the same compound, the “mechanism of mGlu3 antagonism” value (mGlu3 [7]) was “non-competitive (allosteric) mechanism of action” and the principle biotransformation pathway [8] was “P450-mediated O-demethylation”.

In the case of `O=C(c1ccc(C#Cc2ccccc2)cc1)N1CCC(O)CC1` [Compound 3], the pIC50 (mGlu3 [1]; mGlu3 IC50, mGlu3 GIRK assay) was ~5.00 and < 5.00 and the “activity at the six other mGlu subtypes” value (six other mGlu subtypes) was “no activity”.
